This experiment has as its system control cells (HEK293T cells transfected with the empty vector Rho-pME18S). The experiment is described as follows: Luciferase assay: response of control cells to adenosine. Format: cell-based, human. Conditions: FIG. 1.

The values below come from patent publication US20240219394A1, “METHOD FOR MEASURING RESPONSE OF OLFACTORY RECEPTOR TO SUBSTANCE” (AJINOMOTO CO., INC., priority 2021, published 2024).

Experimental: HEK293T cells expressing each of the 352 kinds of olfactory receptors were prepared according to the following procedure. […] The gene mixture and transfection reagent mixture were mixed, dispensed into each well of a poly-D-lysine-coated 384-well plate in a volume of 12.5 μL, and allowed to stand for 15 minutes in a clean bench. The HEK293T cells inoculated in 10-cm petri dishes on the previous day (2.5×10^6 cells/10 cm petri dish) were prepared at a density of 1.2×10^5 cells/mL, inoculated into each well of the 384-well plate in a volume of 25 μL, and cultured overnight in an incubator maintained at 37° C. and 5% C02. […]
The 352 olfactory receptors expressed in HEK293T cells couple with Golf to activate adenylate cyclase, thereby increasing the amount of intracellular cAMP. In this example, responses of the olfactory receptors to the test substances were measured by using a luciferase reporter gene assay, in which increase in intracellular cAMP amount is monitored as an increase in firefly luciferase-derived luminescence. […] In addition, luminescence value derived from Renilla luciferase was used as an internal standard to correct errors due to differences of gene transfer efficiency and cell number among the wells. […]

With `Nc1ncnc2c1ncn2[C@@H]1O[C@H](CO)[C@@H](O)[C@H]1O` [adenosine], the “Response of control cells to adenosine (Luc/hRluc value, increase in cAMP)” value is on record as “caused increase in cAMP”.
